Assay results taken from PMC8348766, “Enhancement of Anti-Tumoral Immunity by β-Casomorphin-7 Inhibits Cancer Development and Metastasis of Colorectal Cancer” (International Journal of Molecular Sciences, 2021).
No end group written: not given here.

Key:
[1] = biological target: T1, CD10 (Homo sapiens, UniProt P08473); test: Suppression of CD10-mediated BCM degradation by thiorphan; assay type: biochemical; details: TOP 1 μM in combination with CD10; 125I-labeled BCM 50 μg
[2] = cited from earlier work
Text: BCM also acts on the immune system. […] Conversely, BCM suppresses lymphocyte proliferation at low concentrations, but promotes it at high concentrations above 10^−7 M [18] by activating the T cell helper (Th)-2 pathway, which induces an inflammatory response in the gut. […] Therefore, under such physiological conditions, BCM presents only in low concentrations and might suppress the immune syst ... || The CD10 that we examined in this study has various alternative names, including membrane metalloendopeptidase, common acute lymphocytic leukemia antigen, neprilysin, neutral endopeptidase, enkephalinase, and atriopeptidase [NCBI, OMIM]. CD10 is known to degrade short peptides such as natriuretic peptides, angiotensin II, bradykinin, apelins, substance P, and adrenomedullin [38]. CD10 expression is widespread in the intestinal mucosa. Incubation of BCM with brush border of the intestinal mucosa degrades 95% of BCM in 24 h.

[3] = biological target: T1, CD10; test: Degradation of 125I-labeled BCM by CD10; assay type: in vitro ADME
Procedure: Figure 1 Effect of BCM on spleen cells and degradation of BCM by CD10. (A) Effect of BCM on subpopulations of spleen cells. Spleen cells of BALB/c mice were treated with BCM (0.1 μg/mL) for 48 h. Differentiation markers were examined by ELISA. (B) Effect of CD10 on degradation of BCM. ^125I-labeled BCM (50 μg) was incubated with CD10 for 16 h. Intact BCM bound to anti-BCM antibody and degraded peptides were separated with electrophoresis and detected by autoradiography. […] (E) Time course of degradation of BCM by CD10. ^125I-labeled BCM (50 μg) was incubated with CD10 (60 μg) and TOP (1 μM). (F) Effect of degraded BCM on subset of spleen cells. Error bar, standard deviation from three independent trials. BCM, β-casomorphin-7; cluster of differentiation; ELISA, enzyme-linked immunosorbent assay; Treg, regulatory T cell; tyr-pro, 1st and 2nd amino acids of BCM; Ab, anti-BCM antibody; TOP, thiorphan.
The N-terminal tyrosine of BCM was labeled with ^125I, and then treated with CD10, followed by treatment with an anti-BCM antibody and electrophoresis in a 15–25% polyacrylamide gel. […] It is considered that a short fragment of tyr-pro at the N-terminal of ^125I-labeled BCM was cleaved. […] In contrast, no decrease in intact BCM was observed when it was additionally treated with TOP. Of note, the CD10 degradation product of BCM had no effect on the lymphocyte subset (Figure 1F).
BCM was purchased from Sigma. Di-amino acid peptide (tyr-pro; 1st and 2nd amino acids of BCM) was synthesized by Peptide Institute Inc. (Ibaraki, Japan). BCM and the tyr-pro peptide were labeled by chloramine-T method with ^125I (J-RAM, Tokyo, Japan) using Pierce™ iodination beads (Thermo Fisher). Labeled BCM was incubated with CD10 in neutral peptidase assay buffer (40 mM Tris-HCl pH 7.1, 4 mM MgCl2, 0.5 mM ZnCl2) for 16 h. Thereafter, the solution was incubated with anti-BCM antibody (Abnova, Taipei City, Taiwan) at 37 °C for 2 h. […] The radioactivity of the solution was also measured by a fluid scintillation counter (LSC-8000, Hitachi, Tokyo, Japan).

T1 sequence (P08473 whole entry, species assumed): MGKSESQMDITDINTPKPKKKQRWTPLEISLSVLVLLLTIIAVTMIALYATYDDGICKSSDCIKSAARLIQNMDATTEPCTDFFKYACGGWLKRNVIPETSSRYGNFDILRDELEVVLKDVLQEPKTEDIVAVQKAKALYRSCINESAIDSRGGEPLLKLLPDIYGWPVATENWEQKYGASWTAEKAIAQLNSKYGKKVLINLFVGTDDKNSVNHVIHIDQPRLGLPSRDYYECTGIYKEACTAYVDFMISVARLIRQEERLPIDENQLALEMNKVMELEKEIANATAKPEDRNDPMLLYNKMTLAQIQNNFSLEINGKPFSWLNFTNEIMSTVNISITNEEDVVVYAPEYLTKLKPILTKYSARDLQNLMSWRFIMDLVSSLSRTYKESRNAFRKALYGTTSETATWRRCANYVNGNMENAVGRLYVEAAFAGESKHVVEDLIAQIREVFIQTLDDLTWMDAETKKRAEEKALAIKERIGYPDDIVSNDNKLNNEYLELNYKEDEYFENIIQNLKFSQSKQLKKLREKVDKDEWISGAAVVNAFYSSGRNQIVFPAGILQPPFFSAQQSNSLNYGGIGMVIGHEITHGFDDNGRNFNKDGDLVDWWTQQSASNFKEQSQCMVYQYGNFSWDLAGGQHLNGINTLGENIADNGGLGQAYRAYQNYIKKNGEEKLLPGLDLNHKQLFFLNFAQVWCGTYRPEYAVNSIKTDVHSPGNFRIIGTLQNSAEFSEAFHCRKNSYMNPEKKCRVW

Row | degradation of BCM by CD10 in presence of TOP [1] | Molecule | fraction of BCM degraded on incubation with brush border of the intestinal mucosa ([2]; 24 h) | fraction of BCM degraded by digestive juice and jejunal brush border [2] | degraded fragment observed after CD10 treatment ([3]; 125I label on N-terminal tyrosine, position in polyacrylamide gel compared with labeled marker) | change in intact BCM over time with CD10 plus TOP ([3]; CD10 60 μg/mL + TOP 1 μM, time course, 125I-labeled BCM 50 μg) | time after which intact BCM completely disappeared ([3]; CD10 60 μg/mL, time course, 125I-labeled BCM 50 μg, Tris-HCl pH 7.1 buffer, electrophoresis, autoradiography)
1 | completely suppressed | O=C(O)CNC(=O)C(CS)Cc1ccccc1 (stereo not drawn) [TOP, thiorphan] | – | – | – | – | –
2 | – | YPFPGPI [BCM, β-Casomorphin-7] | 95% | 95% | tyr-pro | no decrease | 24 h
